# Entries after “also recorded” stand apart in the source; their conditions may differ.
# How the values were obtained:
# [1] = Body weight of hypoxia-induced pulmonary hypertension mice; format: in vivo, mice (C57/BL6); conditions: for average body weight after the test: after 3 weeks hypoxia and once daily intravenous dosing, itraconazole 20 mg/kg/day, mebendazole 25 mg/kg/day
# Protocol: (§1) Hypoxia-induced pulmonary hypertension mice serving as a model generally used in an animal experiment for pulmonary hypertension were intravenously administered itraconazole or mebendazole. Specifically, first, 8-week-old male wild-type mice (C57/BL6 mice, n=10 per group) were housed in a transparent acrylic box with an oxygen concentration controlled to 10% using a hypoxia generator (Teijin Limited, Japan) under a 12 h light and dark cycle. The mice were stimulated by hypoxia for 3 weeks, and in this period, were intravenously injected with itraconazole (the following solution was used as itraconazole: 100 mg of itraconazole was dissolved in 6.7 ml of dimethyl sulfoxide, and the solution of itraconazole in dimethyl sulfoxide was mixed with ultrapure water (mQ or ultrapure water) to prepare a 100 ml solution) once daily at a dose of 20 mg/kg/day. As a Vihicle group, the following test was performed: the mice were stimulated by hypoxia in the same manner as described above except that the mice were intravenously injected with a 1:15 (V/V) mixed solution of dimethyl sulfoxide and ultrapure water in place of itraconazole as a diet. In addition, a mebendazole administration test for hypoxia-induced pulmonary hypertension mice was performed in the same manner as described above except that the mice were intravenously injected with mebendazole in place of itraconazole (the following solution was used as mebendazole: 100 mg of mebendazole was dissolved in 6.7 ml of dimethyl sulfoxide, and the solution of mebendazole in dimethyl sulfoxide was mixed with ultrapure water (mQ or ultrapure water) to prepare a 100 ml solution) at a dose of 25 mg/kg/day.
# After the hypoxic stimulation for 3 weeks, a 1.2-Fr catheter (SciSense Inc., Ontario, Canada) was inserted in the jugular vein of the mice under isoflurane anesthesia and advanced into the right ventricle to measure a right ventricular systolic pressure. […]
# [2] = system: Hypoxia-induced pulmonary hypertension mice; assay: Hypoxia-induced pulmonary hypertension mice, right heart catheterization; format: in vivo, mice (C57/BL6); conditions: hypoxia (10% oxygen) 3 weeks, intravenous once daily, itraconazole 20 mg/kg/day, mebendazole 25 mg/kg/day, vs vehicle; for right ventricular systolic pressure: FIG. 1
# Protocol: as §1
# After the hypoxic stimulation for 3 weeks, a 1.2-Fr catheter (SciSense Inc., Ontario, Canada) was inserted in the jugular vein of the mice under isoflurane anesthesia and advanced into the right ventricle to measure a right ventricular systolic pressure. The average body weights of the Vehicle group, the itraconazole administration group, and the mebendazole administration group before the test were 16.3±0.2 g, 16.8±0.3 g, and 16.8.±0.3 g, respectively. In addition, the average body weights of the Vehicle group, the itraconazole administration group, and the mebendazole administration group after the test were 18.±0.2 g, 17.2±0.2 g, and 17.5±0.2 g, respectively.
# [3] = system: pulmonary artery smooth muscle cells; assay: Excessive proliferation of pulmonary artery smooth muscle cells (compound investigation); format: cell-based
# Description: Under such circumstances, the inventors of the present invention have investigated thousands of kinds of compounds. […] The present invention is based on such novel findings.
# [4] = system: Sugen/hypoxia-induced hypertension rat model; assay: Sugen/hypoxia-induced pulmonary hypertension rat model, RVSP and RVH; format: in vivo, rats (Sprague-Dawley)
# Protocol: In this test, a vehicle treatment group was used as a control. A Sugen/hypoxia-induced hypertension rat model was used to assess pulmonary hypertension (PH) (Non-patent Literature 2). In order to assess the development of pulmonary hypertension, right ventricular systolic pressure (RVSP) and right ventricular hypertrophy (RVH) were measured (Non-patent Literatures 2 to 4).
# For right heart catheterization, a 1.4-F (for rats) pressure measurement catheter (Transonic Scisense) was inserted into the right jugular vein and advanced into the right ventricle to measure RVSP (Non-patent Literature 5).
# In the Sugen/hypoxia model, rats (Sprague-Dawley, male, 6-week-old) were injected subcutaneously with a VEGF-receptor inhibitor SU5416 (Sigma-Aldrich, St Louis, Mo.) (20 mg per kg body weight) under isoflurane anesthesia and were then exposed to hypoxia (10% O2) for 3 weeks. After the indicated period of treatment below, the rats were anesthetized with isoflurane (1.5%) to perform right heart catheterization. All data were analyzed using the PowerLab data acquisition system (AD Instruments, Bella Vista, Australia) and were averaged over 50 sequential beats (Non-patent Literatures 2 to 5).
# Hearts were dissected and the right ventricular free wall (RV) was removed from the left ventricle (LV) and septum. The ratio of right ventricular free wall (RV) weight to left ventricle plus septum (LV+Septum) weight [RV/(LV+S)] was measured to assess the extent of RVH (Non-patent Literature 2).
# Rats (Sprague-Dawley, male, 6-week-old) were injected subcutaneously with a VEGF-receptor inhibitor SU5416 (Sigma-Aldrich) (20 mg per kg body weight) under isoflurane anesthesia and were then exposed to hypoxia (10% 02) for 3 weeks (hypoxia+SU5416). On day 21, the rats were randomized to be intravenously injected with mebendazole (25 mg per kg body weight) or vehicle (the rats were administered dimethyl sulfoxide in place of mebendazole solution) once daily under normoxia (21% O2) for 2 weeks. The vehicle administration group is expressed as vehicle control. […] Thus, the development of PH was assessed.
# [5] = Body weight of rats with Sugen/hypoxia-induced PH; format: in vivo, rats (Sprague-Dawley); conditions: mebendazole 25 mg per kg intravenously once daily for 14 days, vs vehicle control
# Protocol: Rats (Sprague-Dawley, male, 6-week-old) were injected subcutaneously with a VEGF-receptor inhibitor SU5416 (Sigma-Aldrich) (20 mg per kg body weight) under isoflurane anesthesia and were then exposed to hypoxia (10% 02) for 3 weeks (hypoxia+SU5416). On day 21, the rats were randomized to be intravenously injected with mebendazole (25 mg per kg body weight) or vehicle (the rats were administered dimethyl sulfoxide in place of mebendazole solution) once daily under normoxia (21% O2) for 2 weeks. The vehicle administration group is expressed as vehicle control. […] On day 35, the rats were anesthetized with isoflurane (1.0%) to measure RVSP and RVH. Thus, the development of PH was assessed.
# [6] = hypoxia+SU5416 3 weeks, then mebendazole 25 mg per kg intravenously once daily for 2 weeks under normoxia, day 35, vs vehicle control, FIG. 2
SMILES,average body weight after the test [1],"average body weight before the test ([1]; before the test (baseline), mice n=10 per group)",right ventricular hypertrophy [2],right ventricular systolic pressure [2],excessive proliferation of pulmonary artery smooth muscle cells [3],"PH in the animal model in vivo ([4]; Sugen/hypoxia rats, mebendazole 25 mg per kg intravenously once daily for 14 days)","right ventricular hypertrophy (RVH), RV/(LV+S) [4, 6]","right ventricular systolic pressure (RVSP) [4, 6]",body weight [5]
CCC(C)n1ncn(-c2ccc(N3CCN(c4ccc(OC[C@H]5CO[C@](Cn6cncn6)(c6ccc(Cl)cc6Cl)O5)cc4)CC3)cc2)c1=O (stereo partly shown) [itraconazole],17.2 ± 0.2 g,16.8 ± 0.3 g,Significant reductions,Significant reductions,suppresses excessive proliferation,,,,
"COC(=O)Nc1nc2ccc(C(=O)c3ccccc3)cc2[nH]1 [mebendazole, methyl (5-benzoyl-1H-benzo[d]imidazol-2-yl)carbamate]",17.5 ± 0.2 g,,Significant reductions,Significant reductions,suppresses excessive proliferation,ameliorated,reduced,reduced,no significant difference; also recorded: no influence

# Reference: patent publication US11369601B2, “Prophylactic or therapeutic agent for pulmonary hypertension comprising mebendazole and/or itraconazole or salt thereof” (TOHOKU UNIVERSITY, priority 2017, dated 2022)
